# Test results published in PubChem BioAssay AID200 (DTP/NCI, 2004).
# “And” between values parts separate entries of the source, which are not always exact repeats. Identical values can stand only once. Toxic doses and inconclusive results are not listed. Where a SMILES comes first, the peptide text is derived from it. [ ]: non-standard residue; d: D form. The star is where a group is joined. Nle = CCCC[CH](N)C(=O)O; Cbz = O=C(OCc1ccccc1)*; Bn = c1ccc(C*)cc1
# Tested on: B6C3F1 mice, B16 melanoma ip, median survival T/C
# Assay: NCI In Vivo Anticancer Drug Screen. Data for tumor model B16 Melanoma (intraperitoneal) in B6C3F1 mice
# Conditions: endpoint: median survival time, higher = longer survival
# Method in brief: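 Transplantable tumor in mice; treated vs vehicle control groups; survival or tumor size measured; value = T/C ratio.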
# [1] = dose: 100.0 mg/kg/injection, schedule: Q01DX009 (ip), vehicle: Klucel (hydroxypropylcellulose) (HPC)
# [2] = dose: 25.0 mg/kg/injection, schedule: Q01DX009 (ip), vehicle: saline
# [3] = dose: 50.0 mg/kg/injection, schedule: Q01DX009 (ip), vehicle: saline
# [4] = dose: 12.5 mg/kg/injection, schedule: Q01DX009 (ip), vehicle: saline
# [5] = dose: 50.0 mg/kg/injection, schedule: Q01DX009 (ip), vehicle: saline with Tween-80
# [6] = dose: 200.0 mg/kg/injection, schedule: Q01DX009 (ip), vehicle: Klucel (hydroxypropylcellulose) (HPC)
structure (smiles),measurement,setting,value
NC(=O)C(Cc1ccccc1)NC(=O)C(CSCc1ccccc1)NC(=O)OCc1ccccc1 (centres undefined) (Cbz-Cys(Bn)-Phe-NH2; configuration not given here),T/C,"dose: 25.0 mg/kg/injection, schedule: Q01DX009 (ip), vehicle: Klucel (hydroxypropylcellulose) (HPC)",91 % of control
same,T/C,"dose: 50.0 mg/kg/injection, schedule: Q01DX009 (ip), vehicle: Klucel (hydroxypropylcellulose) (HPC)",109 % of control and 105 % of control
same,T/C,[1],100 % of control and 103 % of control
CN1CCCN(C(c2ccccc2)c2ccc(Br)cc2)CC1 (centres undefined),T/C,"dose: 18.0 mg/kg/injection, schedule: Q01DX009 (ip), vehicle: saline",98 % of control
same,T/C,"dose: 36.0 mg/kg/injection, schedule: Q01DX009 (ip), vehicle: saline",92 % of control
CN(C)C=O,T/C,[2],99 % of control
same,T/C,[3],112 % of control and 100 % of control
same,T/C,"dose: 100.0 mg/kg/injection, schedule: Q01DX009 (ip), vehicle: saline",88 % of control and 96 % of control
same,T/C,"dose: 200.0 mg/kg/injection, schedule: Q01DX009 (ip), vehicle: saline",86 % of control and 93 % of control
same,T/C,"dose: 400.0 mg/kg/injection, schedule: Q01DX009 (ip), vehicle: saline",122 % of control and 98 % of control
same,T/C,"dose: 800.0 mg/kg/injection, schedule: Q01DX009 (ip), vehicle: saline",108 % of control and 122 % of control
same,T/C,"dose: 1600.0 mg/kg/injection, schedule: Q01DX009 (ip), vehicle: saline",116 % of control
NNC(=S)N/N=C/c1ccccn1,T/C,"dose: 1.56 mg/kg/injection, schedule: Q01DX009 (ip), vehicle: saline",91 % of control
same,T/C,"dose: 1.56 mg/kg/injection, schedule: Q01DX009 (ip), vehicle: suspension in saline",117 % of control
same,T/C,"dose: 3.12 mg/kg/injection, schedule: Q01DX009 (ip), vehicle: saline",109 % of control
same,T/C,"dose: 3.12 mg/kg/injection, schedule: Q01DX009 (ip), vehicle: suspension in saline",113 % of control
same,T/C,"dose: 6.25 mg/kg/injection, schedule: Q01DX009 (ip), vehicle: saline",94 % of control
same,T/C,"dose: 6.25 mg/kg/injection, schedule: Q01DX009 (ip), vehicle: suspension in saline",102 % of control
same,T/C,[4],105 % of control
same,T/C,"dose: 12.5 mg/kg/injection, schedule: Q01DX009 (ip), vehicle: suspension in saline",113 % of control
same,T/C,[2],98 % of control
CC(C)(C)OC(=O)NC(CCCCNC(=O)C(F)(F)F)C(=O)ON1C(=O)CCC1=O (centres undefined),T/C,"dose: 12.5 mg/kg/injection, schedule: Q01DX009 (ip), vehicle: saline with Tween-80",91 % of control
same,T/C,"dose: 25.0 mg/kg/injection, schedule: Q01DX009 (ip), vehicle: saline with Tween-80",94 % of control
same,T/C,[5],96 % of control and 102 % of control
CC(C)CC(NC(=O)C(F)(F)F)C(=O)O (centres undefined),T/C,[2],89 % of control
same,T/C,[3],91 % of control
O=C(NC(Cc1ccc(I)cc1)C(=O)O)c1ccc(Br)cc1 (centres undefined),T/C,"dose: 25.0 mg/kg/injection, schedule: Q01DX009 (ip), vehicle: sodium bicarbonate",96 % of control
same,T/C,"dose: 50.0 mg/kg/injection, schedule: Q01DX009 (ip), vehicle: sodium bicarbonate",104 % of control
same,T/C,"dose: 100.0 mg/kg/injection, schedule: Q01DX009 (ip), vehicle: sodium bicarbonate",101 % of control
same,T/C,"dose: 200.0 mg/kg/injection, schedule: Q01DX009 (ip), vehicle: sodium bicarbonate",97 % of control
CCC1=C[C@H]2CN(CCc3c([nH]c4ccccc34)[C@@](C(=O)OC)(c3cc4c(cc3OC)N(C)[C@H]3[C@@](O)(C(=O)NN)[C@H](O)[C@]5(CC)C=CCN6CC[C@]43[C@@H]65)C2)C1,T/C,"dose: 15.62 micrograms/kg/injection, schedule: Q01DX009 (ip), vehicle: water",116 % of control
same,T/C,"dose: 31.25 micrograms/kg/injection, schedule: Q01DX009 (ip), vehicle: water",119 % of control
same,T/C,"dose: 125.0 micrograms/kg/injection, schedule: Q01DX009 (ip), vehicle: water",167 % of control
same,T/C,"dose: 250.0 micrograms/kg/injection, schedule: Q01DX009 (ip), vehicle: water",166 % of control
same,T/C,"dose: 500.0 micrograms/kg/injection, schedule: Q01DX009 (ip), vehicle: water",176 % of control
CC1OC2CC(O)C1(O)C1=C2C(O)=C(C(N)=O)C(=N)C1=O (centres undefined),T/C,"dose: 0.31 mg/kg/injection, schedule: Q01DX009 (ip), vehicle: saline",106 % of control
same,T/C,"dose: 0.62 mg/kg/injection, schedule: Q01DX009 (ip), vehicle: saline",98 % of control
same,T/C,"dose: 1.25 mg/kg/injection, schedule: Q01DX009 (ip), vehicle: saline",104 % of control
same,T/C,"dose: 2.5 mg/kg/injection, schedule: Q01DX009 (ip), vehicle: saline",98 % of control
same,T/C,"dose: 5.0 mg/kg/injection, schedule: Q01DX009 (ip), vehicle: saline",102 % of control
CC(C)NC(=O)OCc1c(COC(=O)NC(C)C)c(-c2ccc(Cl)c(Cl)c2)n2c1C[C@@H](O)C2,T/C,"dose: 5.0 mg/kg/injection, schedule: Q01DX009 (ip), vehicle: water",160 % of control
same,T/C,"dose: 10.0 mg/kg/injection, schedule: Q01DX009 (ip), vehicle: water",196 % of control
same,T/C,"dose: 20.0 mg/kg/injection, schedule: Q01DX009 (ip), vehicle: Klucel (hydroxypropylcellulose) (HPC)",196 % of control
same,T/C,"dose: 20.0 mg/kg/injection, schedule: Q01DX009 (ip), vehicle: water",289 % of control
same,T/C,"dose: 40.0 mg/kg/injection, schedule: Q01DX009 (ip), vehicle: Klucel (hydroxypropylcellulose) (HPC)",223 % of control
same,T/C,"dose: 40.0 mg/kg/injection, schedule: Q01DX009 (ip), vehicle: water",191 % of control
same,T/C,"dose: 80.0 mg/kg/injection, schedule: Q01DX009 (ip), vehicle: Klucel (hydroxypropylcellulose) (HPC)",101 % of control
O=NN(CCF)C(=O)NC1C(O)CCCC1O (centres undefined),T/C,"dose: 7.5 mg/kg/injection, schedule: Q01DX001 (ip), vehicle: saline",198 % of control
same,T/C,"dose: 15.0 mg/kg/injection, schedule: Q01DX001 (ip), vehicle: saline",222 % of control
same,T/C,"dose: 30.0 mg/kg/injection, schedule: Q01DX001 (ip), vehicle: saline",350 % of control
same,T/C,"dose: 60.0 mg/kg/injection, schedule: Q01DX001 (ip), vehicle: saline",350 % of control
CCCCC(NC(=O)OCc1ccccc1)C(=O)NC(C(=O)O)C(C)C (centres undefined) (Cbz-[Nle]-Val-OH; configuration not given here),T/C,[1],108 % of control
same,T/C,[6],105 % of control
CCOC(=O)c1ccc(NN=NCCF)cc1,T/C,"dose: 3.0 mg/kg/injection, schedule: Q01DX009 (ip), vehicle: distilled water + Tween-80",123 % of control and 102 % of control
same,T/C,"dose: 3.12 mg/kg/injection, schedule: Q01DX009 (ip), vehicle: distilled water + Tween-80",123 % of control
same,T/C,"dose: 6.0 mg/kg/injection, schedule: Q01DX009 (ip), vehicle: distilled water + Tween-80",112 % of control and 98 % of control
same,T/C,"dose: 12.0 mg/kg/injection, schedule: Q01DX009 (ip), vehicle: distilled water + Tween-80",87 % of control and 103 % of control
same,T/C,"dose: 12.5 mg/kg/injection, schedule: Q01DX009 (ip), vehicle: distilled water + Tween-80",155 % of control
same,T/C,"dose: 24.0 mg/kg/injection, schedule: Q01DX009 (ip), vehicle: distilled water + Tween-80",108 % of control and 101 % of control
same,T/C,"dose: 25.0 mg/kg/injection, schedule: Q01DX009 (ip), vehicle: distilled water + Tween-80",198 % of control
same,T/C,"dose: 48.0 mg/kg/injection, schedule: Q01DX009 (ip), vehicle: distilled water + Tween-80",96 % of control and 102 % of control
O=C1CC2(C(=O)N1CN1CCOCC1)c1ccccc1-c1ccccc12,T/C,[1],93 % of control
same,T/C,[6],98 % of control
same,T/C,"dose: 400.0 mg/kg/injection, schedule: Q01DX009 (ip), vehicle: Klucel (hydroxypropylcellulose) (HPC)",93 % of control
O=C(O)c1cc(C(=O)O)c(C(=O)O)cc1C(=O)O.[NH2-].[NH2-].[NH2-].[NH2-].[Pt+2].[Pt+2],T/C,"dose: 0.12 mg/kg/injection, schedule: Q01DX009 (ip), vehicle: water",110 % of control
same,T/C,"dose: 0.25 mg/kg/injection, schedule: Q01DX009 (ip), vehicle: water",104 % of control
same,T/C,"dose: 0.5 mg/kg/injection, schedule: Q01DX009 (ip), vehicle: water",109 % of control and 110 % of control
same,T/C,"dose: 1.0 mg/kg/injection, schedule: Q01DX009 (ip), vehicle: water",114 % of control and 118 % of control
same,T/C,"dose: 8.0 mg/kg/injection, schedule: Q01DX009 (ip), vehicle: water",154 % of control
COc1ccc(C(=O)CC2CCCC(CC(=O)c3ccc(OC)cc3)N2C)cc1 (centres undefined),T/C,[5],103 % of control
same,T/C,"dose: 100.0 mg/kg/injection, schedule: Q01DX009 (ip), vehicle: saline with Tween-80",101 % of control
C[C@@H]1C[C@@H]([C@H](O)CC2CC(=O)NC(=O)C2)C(=O)[C@@H](C)C1,T/C,[4],105 % of control
same,T/C,[2],111 % of control
same,T/C,[3],106 % of control
